Test results published in the supplement of paper PMC10307832.

Columns and labels:
Assay in all cases: relative viability (nuclei count vs DMSO), 5 days (fraction); higher = more cells survive
XMD8-85 + Pemetrexed = compound: CN1CCN(CC1)C2=CC(=C(C=C2)NC3=NC=C4C(=N3)N(C5=CC=CC=C5C(=O)N4C)C)OC [XMD8-85] + Nc1nc2[nH]cc(CCc3ccc(C(=O)N[C@@H](CCC(=O)O)C(=O)O)cc3)c2c(=O)[nH]1 [Pemetrexed] (partner 0.2 µM)
Method in brief: (§1)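 Each reported value is a median over duplicate plates. It expresses relative viability: treated-well nuclei count divided by vehicle-well nuclei count. Lung cancer cell lines in 1536-well plates were dosed by pin tool a day after seeding, alone with one drug or with a fixed anchor-drug dose plus five library-drug doses (not always all listed) in √10 steps, and nuclei were counted after 5 days.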

4EGI-1 + Palbociclib = compound: O=C(O)C(Cc1ccccc1[N+](=O)[O-])=NNc1nc(-c2ccc(Cl)c(Cl)c2)cs1 (mixture of isomers) [4EGI-1] + CC(=O)c1c(C)c2cnc(Nc3ccc(N4CCNCC4)cn3)nc2n(C2CCCC2)c1=O [Palbociclib] (partner 0.5 µM)
Method in brief: as §1

4EGI-1 + Lapatinib = compound: O=C(O)C(Cc1ccccc1[N+](=O)[O-])=NNc1nc(-c2ccc(Cl)c(Cl)c2)cs1 (mixture of isomers) [4EGI-1] + CS(=O)(=O)CCNCc1ccc(-c2ccc3ncnc(Nc4ccc(OCc5cccc(F)c5)c(Cl)c4)c3c2)o1 [Lapatinib] (partner 2 µM)
Method in brief: as §1

XMD8-85 + Lapatinib = compound: CN1CCN(CC1)C2=CC(=C(C=C2)NC3=NC=C4C(=N3)N(C5=CC=CC=C5C(=O)N4C)C)OC [XMD8-85] + CS(=O)(=O)CCNCc1ccc(-c2ccc3ncnc(Nc4ccc(OCc5cccc(F)c5)c(Cl)c4)c3c2)o1 [Lapatinib] (partner 2 µM)
Method in brief: as §1

For NCI-H1792, which relative viability (XMD8-85 + Pemetrexed; first compound 0.253 µM) is on record?
Its relative viability is 0.439.

What about the relative viability (XMD8-85 + Pemetrexed; first compound 0.8 µM) of the same cell line?
The relative viability was 0.889.

And the relative viability (XMD8-85 + Pemetrexed; first compound 2.53 µM)?
The relative viability was 0.924.

And the relative viability (XMD8-85 + Pemetrexed; first compound 8 µM)?
The relative viability was 0.818.

What about the relative viability (4EGI-1 + Palbociclib; first compound 0.5 µM) of the same cell line?
Its relative viability is 0.75.

What about the relative viability (4EGI-1 + Palbociclib; first compound 1.581 µM) of the same cell line?
The relative viability was 0.695.

What about the relative viability (4EGI-1 + Palbociclib; first compound 5 µM) of the same cell line?
The relative viability was 0.723.

And the relative viability (4EGI-1 + Palbociclib; first compound 15.81 µM)?
The relative viability was 0.575.

What about the relative viability (4EGI-1 + Palbociclib; first compound 50 µM) of the same cell line?
Its relative viability is 0.646.

What about the relative viability (4EGI-1 + Lapatinib; first compound 0.5 µM) of the same cell line?
The relative viability was 0.84.

And the relative viability (4EGI-1 + Lapatinib; first compound 1.581 µM)?
The relative viability was 0.864.

And the relative viability (4EGI-1 + Lapatinib; first compound 5 µM)?
Its relative viability is 0.899.

What about the relative viability (4EGI-1 + Lapatinib; first compound 15.81 µM) of the same cell line?
The relative viability was 0.816.

And the relative viability (4EGI-1 + Lapatinib; first compound 50 µM)?
The relative viability was 0.557.

And the relative viability (XMD8-85 + Lapatinib; first compound 0.08 µM)?
Its relative viability is 0.893.

And the relative viability (XMD8-85 + Lapatinib; first compound 0.253 µM)?
The relative viability was 0.63.

And the relative viability (XMD8-85 + Lapatinib; first compound 2.53 µM)?
Its relative viability is 0.675.

And the relative viability (XMD8-85 + Lapatinib; first compound 8 µM)?
Its relative viability is 0.879.
